Reference: article PMC7737769, “Pharmacological inhibition of syntenin PDZ2 domain impairs breast cancer cell activities and exosome loading with syndecan and EpCAM cargo” (Journal of Extracellular Vesicles, 2020)
Where “and” joins values, the source holds several entries; their conditions need not be identical. Equal entries are not always repeated. Entries after “also recorded” stand apart in the source; their conditions may differ. Where two headings read alike, the source gives them in different places.

What was measured:
[1] = system: MCF‐7 cells; assay: Mammosphere formation assay, MCF-7; format: cell-based; details: wild-type MCF-7, 50 & 100 µM
Description: MCF‐7 and MCF‐7 SyntKO cells were treated with increasing concentrations of compounds C58, SyntOFF (50‐100µM) or DMSO 0.2% as control. After 24 h, cells were trypsinized, re‐suspended in normal growth media and washed three times in PBS to remove serum. Cell concentration was determined using the LUNA-FL Automated Fluorescence Cell Counter (Logos Biosystem) and cells were then seeded at 1000 cells/ml in 6‐well Ultra low Adherence plates (Corning Inc., Corning, NY) in MEBM medium (Lonza) supplemented with 5 µg/ml insulin (Sigma‐Aldrich), 20 ng/ml recombinant epidermal growth factor (Sigma‐Aldrich), 1X of B27 supplement (Invitrogen, Carlsbad, CA, USA), 0.5 µg/ml hydrocortisone (Sigma‐Aldrich), 1X of β‐mercaptoethanol and 1% penicillin/streptomycin (Gibco). Fresh medium was added into the plates every 3–4 days. The number of spheres (diameter > 50 µm) was evaluated under microscope on days 7–10. Sphere formation was calculated as the number of spheres divided by the original number of cells seeded and normalized to control.

[2] = system: T1, Erbin‐P0071 complex; assay: HTRF assay, Erbin-P0071 interaction; format: biochemical, human
T1 construct: human Erbin PDZ domain; made in house; host or cells: E. coli BL21 (DE3)
Description: (§1) HTRF assays were performed in white 96Well Small VolumeHiBase Polystyrene Microplates (Greiner) with a total working volume of […], as described previously (Milhas et al., 2016). Briefly, compounds were firstly dispensed into the wells at 400 µM for the primary screen or with serial DMSO dilutions for IC50 measurement assays. Primary screening assays have been performed in monoplicate while IC50 measurements were performed in triplicates. All HTRF reagents were purchased from CisBio Bioassays and reconstituted according to the supplier protocols. The plates were spun for 3 min at 500 × g and then incubated at 4°C for 16 h. The HTRF signals were recorded on a POLAR star Omega plate reader (BMG Labtech) with an excitation filter at 337 nm and fluorescence wavelength measurement at 620 and 665 nm, an integration delay of 60 µs and an integration time of 400 µs. Results were analysed with a two‐wavelength signal ratio: [intensity (665 nm)/intensity (620 nm)] × 10^4. Percentage of inhibition was calculated using the following equation: % inhibition = [(compound signal)–(min signal)]/[(max signal)–(min signal)] × 100, where ‘max signal’ is the signal ratio with the compound vehicle alone (DMSO) and ‘min signal’ the signal ratio without protein B. For IC50 measurements, values were normalized and fitted with Prism (GraphPad software) using the following equation: Y = 100/(1+((X/ IC50)ˆHill slope)).
(§2) The search strategy for PDZ2 syntenin inhibitors was based on the PDZ targeted library developed from Enamine compound collection. The PDZ targeted library was developed to cover virtually all PDZ domains. Consequently, to create the syntenin PDZ2 focused library we used two independent paths: docking of the PDZ targeted library against structures of syntenin PDZ2 available in Protein Data Bank and a random selection from the PDZ targeted library. The docking has produced 21 virtual hits, which were added to 118 randomly selected compounds (10% of the pan PDZ library). The resultant set of 139 compounds, syntenin PDZ library was subjected to experimental validation. The primary screen was performed at 400µM using a previously validated Homogeneous Time Resolved Fluorescence (HTRF) assay (Milhas et al., 2016). HTRF is based on Fluorescence Resonance Energy Transfer (FRET) between two fluorescent reagents. In the present case, Anti‐GST‐Terbium antibody and streptavidin‐bound Dynamic2 were used as donor and acceptor respectively. Interactions between GST PDZ‐fusion proteins and biotinylated peptides containing PDZ binding motifs were challenged with the potential inhibitors. In parallel, control experiments were performed with a biotinylated‐GST to verify that compounds were not interfering with the FRET signal in a non‐specific manner. To identify inhibitors of syntenin PDZ interactions, we tested for the effect of the 139 compounds on syntenin‐SDC2 and syntenin‐Frizzled7 complexes (Figure 1a; Table S1). When the HTRF signal dropped below 0.9, inhibition was considered as effective. […] Noteworthy, these compounds had no effect on other PDZ complexes like GRASP55‐JAM‐B or GRASP55‐JAM‐C and Erbin‐Erbb2 or Erbin‐P0071 (Figure 1c).

[3] = system: T2, GRASP55‐JAM‐B complex; assay: HTRF assay, GRASP55-JAM-B interaction; format: biochemical, human
T2 construct: Human GRASP55 tandem PDZ; made in house; host or cells: E. coli BL21 (DE3)
Description: as §1, §2

[4] = system: MCF‐7 cells; assay: Cancer cell viability (Annexin V/7-AAD flow cytometry), MCF-7; format: cell-based; details: MCF-7, concentrations up to 100 µM, 48 h
Description: The effects of the compounds C58 and SyntOFF were tested both on MCF‐7 and MCF‐7 SyntKO cells. Briefly, the cells were treated with increasing concentrations of the compounds for 48 h and early/late apoptosis was measured by using the FITC Annexin V apoptosis detection kit with 7‐AAD (Biolegend, San Diego, CA, USA) according to the manufacturer. Annexin V positive but 7‐AAD negative (early apoptotic cells) and Annexin V positive and 7‐AAD positive (late stage apoptosis) was determined by using FACS LSRII flow cytometer (BD Biosciences) and data were analysed with Flowjo software (Tree Star).

[5] = biological target: T3, syntenin‐SDC2 complex (GST-SyntFL / SDC2 peptide) (Homo sapiens, UniProt O00560); assay: HTRF assay, syntenin-SDC2 interaction; format: biochemical; details: for IC50: HTRF dose-response, read-out: IC50 for syntenin‐SDC2 complexes; for inhibition at 400 µM: HTRF
T3 construct: residues 1–298 or syntenin full‐length (FL) for HTRF assays; made in house; host or cells: E. coli ER2566
T3 sequence (O00560 1-298): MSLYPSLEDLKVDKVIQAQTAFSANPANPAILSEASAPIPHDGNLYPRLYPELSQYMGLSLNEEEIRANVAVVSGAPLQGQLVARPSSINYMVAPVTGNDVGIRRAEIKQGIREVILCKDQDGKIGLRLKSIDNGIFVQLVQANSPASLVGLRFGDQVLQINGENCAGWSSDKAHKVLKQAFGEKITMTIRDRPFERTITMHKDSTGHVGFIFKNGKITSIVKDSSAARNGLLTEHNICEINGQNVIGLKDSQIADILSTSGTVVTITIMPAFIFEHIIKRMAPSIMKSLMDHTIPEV

fold improvement of the affinity as compared to C58 ([5]; HTRF IC50) | inhibition at 400 µM ([5]; read-out: inhibition of the syntenin‐SDC2 interaction) [%] | SMILES | mammosphere formation [1] | GST-Erbin P0071 (signal ratio) ([2]; 400µM compound, Figure 1c) | GST-GRASP JAM-B (signal ratio) ([3]; 400µM compound, Figure 1c) | toxicity (cell viability) [4] | ligand efficiency [5] [kcal/mol/atom] | GST SyntFL Syndecan 2 (signal ratio) ([5]; 400µM compound, Figure 1c) | IC50 [5] | inhibition of syntenin PDZ interactions ([5]; HTRF primary screen, 400µM, syntenin-SDC2 and syntenin-Frizzled7) | inhibition at 400 µM ([5]; syntenin-SDC2 and syntenin-Frizzled 7 complexes, read-out: extent of inhibition of Syntenin‐PDZ complexes) [%] | effect on Erbin‐P0071 complex ([2]; HTRF dose-response, Figure S2a) | effect on GRASP55‐JAM‐B complex ([3]; HTRF dose-response, Figure S2b)
– | – | CC(C)[C@H](NC(=O)CSc1ccc(Cl)cc1)C(=O)O [Compound C58] | decreases | 1 | 1.1 | not toxic; also recorded: non‐toxic | 0.24 | 0.36 | 350 µM and 349 µM | inhibit | 60 | – | –
> 10 fold and 10 fold | 96 | CC(C)[C@H](NC(=O)CCSc1ccc(Cl)cc1)C(=O)O [SyntOFF, (S)‐2‐(3‐(4‐chlorophenylthio)propanamido)‐3‐methylbutanoic acid] | decreases | – | – | non‐toxic | 0.30 | – | 37 µM | – | – | not affecting | not affecting
